Values after ≈ are worked out from the molar mass of the structure shown.
Columns and labels:
[1] = system: RPMI8226 cell line; assay: multiple myeloma cell growth inhibition, MTT; format: cell-based; conditions: Homo sapiens, RPMI-8226; for inhibition at 16 µg/mL: RPMI8226, 16 μg/mL compound, 72 h, read-out: IR (cell proliferation inhibition rate); for IC50: RPMI8226, 72 h
Description: Multiple myeloma cell lines: RPMI8226 (multiple myeloma), purchased from Fuxiang Bio-tech Co. Ltd., Shanghai, China.
(§1) Obtaining 6000 well-growing cells as above and inoculating them into wells of a 96-well cell culture plate. The culture medium is the 1640 cell culture medium containing 10% fetal bovine serum. After adding the 2-substituted oleanolic acid derivatives of different concentrations and mixing uniformly, placing the plate in a carbon dioxide cell incubator (5% CO2) at 37° C. and incubated for 72 hours. Then the relative number of viable cells is determined by MTT method. In this experiment, cell proliferation inhibition rate in control group (not treated with any compound) is set as 0%.

[2] = system: Kasumi-1 cell line; assay: leukemia cell growth inhibition, MTT; format: cell-based; conditions: Homo sapiens; for inhibition at 16 µg/mL: Kasumi-1, 16 μg/mL compound, 72 h, read-out: IR (cell proliferation inhibition rate); for IC50: Kasumi-1, 72 h
From the text: (§2) Leukemia cell lines: leukemia cell lines: K562/adr (drug-resistant, chronic myeloid leukemia, CML), NB4 (acute promyelocytic leukemia, AML), Kasumi-1 (acute myeloid leukemia M2 type, AML-M2), Jurkat (acute lymphoblastic leukemia, ALL), all of which are donated by Cancer Research Institute of Zhejiang University, China; and H9 (acute lymphoblastic leukemia, ALL), which is purchased from China Center for Type Culture Collection (CCTCC).
as §1, with “well-growing leukemia” for “well-growing”, “cells” for “cells as above”

[3] = system: K562/adr cell line; assay: leukemia cell growth inhibition, MTT; format: cell-based; conditions: Homo sapiens, 72 h; for IC50: K562/Adr; for inhibition at 16 µg/mL: K562/adr, 16 μg/mL compound, read-out: IR (cell proliferation inhibition rate)
From the text: as §2
as §1, with “well-growing leukemia” for “well-growing”, “cells” for “cells as above”

[4] = system: NB4 cell line; assay: leukemia cell growth inhibition, MTT; format: cell-based; conditions: Homo sapiens, NB-4; for inhibition at 16 µg/mL: NB4, 16 μg/mL compound, 72 h, read-out: IR (cell proliferation inhibition rate); for IC50: NB4, 72 h
From the text: as §2
as §1, with “well-growing leukemia” for “well-growing”, “cells” for “cells as above”

[5] = system: H9 cell line; assay: leukemia cell growth inhibition, MTT; format: cell-based; conditions: Homo sapiens; for IC50: H9, 72 h; for inhibition at 16 µg/mL: H9, 16 μg/mL compound, 72 h, read-out: IR (cell proliferation inhibition rate)
From the text: as §2
as §1, with “well-growing leukemia” for “well-growing”, “cells” for “cells as above”

[6] = system: Jurkat cell line; assay: leukemia cell growth inhibition, MTT; format: cell-based; conditions: Homo sapiens, 72 h; for inhibition at 16 µg/mL: 16 μg/mL compound, read-out: IR (cell proliferation inhibition rate)
From the text: as §2
as §1, with “well-growing leukemia” for “well-growing”, “cells” for “cells as above”

[7] = system: Hep-2 cell line; assay: solid tumor cell growth inhibition, MTT; format: cell-based; conditions: Homo sapiens; for IC50: HEp-2, 72 h; for inhibition at 16 µg/mL: Hep-2, 16 μg/mL compound, 72 h, read-out: IR (cell proliferation inhibition rate)
Description: (§3) Hep-2 (laryngeal carcinoma), A549 (human lung cancer), CaES-17 (esophageal cancer cell), PC-3 (prostate cancer), CNE (nasopharyngeal carcinoma cell), and SK-OV-3 (ovarian cancer cell), all of which are purchased from China Center For Type Culture Collection; RKO (human colon adenocarcinoma cell), MGC 803 (human gastric cancer cell), MG63 (osteosarcoma) and U87 MG (malignant glioma cell), all of which are purchased from Fuxiang Bio-tech Co. Ltd., Shanghai, China; PANC-1 (pancreatic cancer), Hep G2 (human liver cancer cell), Becap37 (human breast cancer cell), and Hela (human cervical cancer cell), all of which are donated by Cancer Research Institute of Zhejiang University, China.
(§4) Obtaining 4000 well-growing human solid tumor cells and inoculating them into wells of a 96-well cell culture plate. The culture medium is DMEM High Glucose cell culture medium containing 10% fetal bovine serum. The plate is placed in a carbon dioxide cell incubator (5% CO2) at 37° C. for 24 hours. After adding the 2-substituted oleanolic acid derivatives of different concentrations and mixing uniformly, the plate is placed in a carbon dioxide cell incubator (5% CO2) at 37° C. and incubated for 72 hours. Then the relative number of the living cells is determined by MTT method. In this experiment, the cell proliferation inhibition rate in control group (not treated with any compound) is set as 0%.

[8] = system: Hela cell line; assay: solid tumor cell growth inhibition, MTT; format: cell-based; conditions: Homo sapiens, 72 h; for IC50: HeLa; for inhibition at 16 µg/mL: Hela, 16 μg/mL compound, read-out: IR (cell proliferation inhibition rate)
Description: as §3, §4

[9] = system: MGC 803 cell line; assay: solid tumor cell growth inhibition, MTT; format: cell-based; conditions: Homo sapiens; for inhibition at 16 µg/mL: MGC 803, 16 μg/mL compound, 72 h, read-out: IR (cell proliferation inhibition rate); for IC50: MGC 803, 72 h
Description: as §3, §4

[10] = system: PANC-1 cell line; assay: solid tumor cell growth inhibition, MTT; format: cell-based; conditions: Homo sapiens; for IC50: PANC-1, 72 h; for inhibition at 16 µg/mL: PANC-1, 16 μg/mL compound, 72 h, read-out: IR (cell proliferation inhibition rate)
Description: as §3, §4

[11] = system: MG-63 cell line; assay: solid tumor cell growth inhibition, MTT; format: cell-based; conditions: Homo sapiens; for IC50: MG-63, 72 h; for inhibition at 16 µg/mL: MG-63, 16 μg/mL compound, 72 h, read-out: IR (cell proliferation inhibition rate)
Description: as §3, §4

[12] = system: SK-OV-3 cell line; assay: solid tumor cell growth inhibition, MTT; format: cell-based; conditions: Homo sapiens; for IC50: SK-OV-3, 72 h; for inhibition at 16 µg/mL: SK-OV-3, 16 μg/mL compound, 72 h, read-out: IR (cell proliferation inhibition rate)
Description: as §3, §4

[13] = system: A549 cell line; assay: solid tumor cell growth inhibition, MTT; format: cell-based; conditions: Homo sapiens; for IC50: A549, 72 h; for inhibition at 16 µg/mL: A549, 16 μg/mL compound, 72 h, read-out: IR (cell proliferation inhibition rate)
Description: as §3, §4

[14] = system: CNE cell line; assay: solid tumor cell growth inhibition, MTT; format: cell-based; conditions: Homo sapiens, 72 h; for inhibition at 16 µg/mL: 16 μg/mL compound, read-out: IR (cell proliferation inhibition rate)
Description: as §3, §4

[15] = system: CaES-17 cell line; assay: solid tumor cell growth inhibition, MTT; format: cell-based; conditions: Homo sapiens, CaEs17; for inhibition at 16 µg/mL: CaES-17, 16 μg/mL compound, 72 h, read-out: IR (cell proliferation inhibition rate); for IC50: CaES-17, 72 h
Description: as §3, §4

[16] = system: PC-3 cell line; assay: solid tumor cell growth inhibition, MTT; format: cell-based; conditions: Homo sapiens; for IC50: PC-3, 72 h; for inhibition at 16 µg/mL: PC-3, 16 μg/mL compound, 72 h, read-out: IR (cell proliferation inhibition rate)
Description: as §3, §4

[17] = system: U87 MG cell line; assay: solid tumor cell growth inhibition, MTT; format: cell-based; conditions: Homo sapiens, U-87 MG, 72 h; for inhibition at 16 µg/mL: 16 μg/mL compound, read-out: IR (cell proliferation inhibition rate)
Description: as §3, §4

[18] = system: Becap37 cell line; assay: solid tumor cell growth inhibition, MTT; format: cell-based; conditions: Homo sapiens; for inhibition at 16 µg/mL: Becap37, 16 μg/mL compound, 72 h, read-out: IR (cell proliferation inhibition rate); for IC50: Becap37, 72 h
Description: as §3, §4

[19] = system: RKO cell line; assay: solid tumor cell growth inhibition, MTT; format: cell-based; conditions: Homo sapiens, 72 h; for inhibition at 16 µg/mL: 16 μg/mL compound, read-out: IR (cell proliferation inhibition rate)
Description: as §3, §4

[20] = system: Hep G2 cell line; assay: solid tumor cell growth inhibition, MTT; format: cell-based, human; conditions: Homo sapiens; for inhibition at 16 µg/mL: HepG2, 72 h, Hep G2, 16 μg/mL compound, 72 h, read-out: IR (cell proliferation inhibition rate); for IC50: HepG2, Hep G2, 72 h
Description: as §3, §4

IC50 [1] [µg/mL] | IC50 [2] [µg/mL] | IC50 [3] [µg/mL] | IC50 [4] [µg/mL] | IC50 [5] [µg/mL] | IC50 [6] [µg/mL] | IC50 [7] [µg/mL] | IC50 [8] [µg/mL] | IC50 [9] [µg/mL] | IC50 [10] [µg/mL] | SMILES | inhibition at 16 µg/mL [1] [%] | inhibition at 16 µg/mL [2] [%] | inhibition at 16 µg/mL [3] [%] | inhibition at 16 µg/mL [4] [%] | inhibition at 16 µg/mL [5] [%] | inhibition at 16 µg/mL [6] [%] | inhibition at 16 µg/mL [7] [%] | inhibition at 16 µg/mL [8] [%] | inhibition at 16 µg/mL [9] [%] | inhibition at 16 µg/mL [10] [%] | also measured
1.15 (≈ 1.85 µM) | 3.76 (≈ 6.04 µM) | 0.52 (≈ 0.835 µM) | 2.94 (≈ 4.72 µM) | 2.96 (≈ 4.75 µM) | 2.38 (≈ 3.82 µM) | 5.85 (≈ 9.39 µM) | 3.78 (≈ 6.07 µM) | 3 (≈ 4.82 µM) | 4.38 (≈ 7.03 µM) | COC(=O)[C@]12CCC(C)(C)CC1C1=CCC3[C@@]4(C)CC(C(=O)NCCCN5CCCC5)C(=O)C(C)(C)C4CC[C@@]3(C)[C@]1(C)CC2 (some centres unmarked) [BS-OA-016] | 99 | 99.1 | 97.8 | 99.8 | 95.4 | 95.1 | 97.2 | 98 | 99.1 | 98.5 | IC50 [11]: 4.35 µg/mL (≈ 6.98 µM); inhibition at 16 µg/mL [11]: 100%; IC50 [12]: 5.04 µg/mL (≈ 8.09 µM); inhibition at 16 µg/mL [12]: 99.5%; IC50 [13]: 2.45 µg/mL (≈ 3.93 µM); inhibition at 16 µg/mL [13]: 96.8%; inhibition at 16 µg/mL [14]: 99.4%; IC50 [14]: 4.07 µg/mL (≈ 6.53 µM); inhibition at 16 µg/mL [15]: 99.4%; IC50 [15]: 3.93 µg/mL (≈ 6.31 µM); IC50 [16]: 5.06 µg/mL (≈ 8.12 µM); inhibition at 16 µg/mL [16]: 99.8%; inhibition at 16 µg/mL [17]: 100%; IC50 [17]: 2.45 µg/mL (≈ 3.93 µM); inhibition at 16 µg/mL [18]: 99.5%; IC50 [18]: 5.12 µg/mL (≈ 8.22 µM); inhibition at 16 µg/mL [19]: 99.4%; IC50 [19]: 3.33 µg/mL (≈ 5.35 µM); inhibition at 16 µg/mL [20]: > 96%; IC50 [20]: 2.58 µg/mL (≈ 4.14 µM)
6.1 (≈ 9.89 µM) | 12.4 (≈ 20.1 µM) | 3.7 (≈ 6 µM) | 4.57 (≈ 7.41 µM) | 7.72 (≈ 12.5 µM) | 9.85 (≈ 16 µM) | > 16 | 10.8 (≈ 17.4 µM) | 9.96 (≈ 16.1 µM) | > 16 | COC(=O)[C@]12CCC(C)(C)CC1C1=CCC3[C@@]4(C)CC(C(=O)NCCc5cccnc5)C(=O)C(C)(C)C4CC[C@@]3(C)[C@]1(C)CC2 (some centres unmarked) [BS-OA-027] | 86.5 | 72.2 | 82.6 | 93.8 | 92.5 | 83.4 | 35.5 | 62 | 80.1 | 36.9 | IC50 [11]: > 16 µg/mL; inhibition at 16 µg/mL [11]: 25.4%; IC50 [12]: 6.63 µg/mL (≈ 10.7 µM); inhibition at 16 µg/mL [12]: 91.6%; IC50 [13]: > 16 µg/mL; inhibition at 16 µg/mL [13]: 45.6%; inhibition at 16 µg/mL [14]: 51.3%; IC50 [14]: 15.6 µg/mL (≈ 25.3 µM); inhibition at 16 µg/mL [15]: 49.5%; IC50 [15]: 17 µg/mL (≈ 27.5 µM); IC50 [16]: 7.79 µg/mL (≈ 12.6 µM); inhibition at 16 µg/mL [16]: 68.9%; inhibition at 16 µg/mL [17]: 48.7%; IC50 [17]: 16 µg/mL (≈ 25.9 µM); inhibition at 16 µg/mL [18]: 34.3%; IC50 [18]: > 16 µg/mL; inhibition at 16 µg/mL [19]: 46.8%; IC50 [19]: 16 µg/mL (≈ 25.9 µM); inhibition at 16 µg/mL [20]: 51.4%; IC50 [20]: 15.6 µg/mL (≈ 25.3 µM)
